Results from US20070128217A1 (priority 2003, published 2007).

Assays:
[1] = test system: antibodies in sera from SARS patients (sera 1a, 1b, 2, 6, 37, 62, London, SARS-yellow, SARS-green); type: binding, human
[2] = test system: control sera (pooled serum of ten healthy LUMC hospital workers; commercial negative donor pooled serum from the Dutch bloodbank); type: binding, human
[3] = test system: rabbit serum obtained by immunizing a rabbit with the SARS-CoV strain Frankfurt 1; type: binding; design: Binding of a rabbit serum to linear peptides / Binding of a rabbit serum to looped peptides / Rabbit serum linear peptides / Rabbit serum looped peptides / Binding of a rabbit serum to linear peptides of protein N of SARS-CoV Urbani (Rabbit serum linear peptides) / Binding of a rabbit serum to looped/cyclic peptides of protein N of SARS-CoV Urbani (Rabbit serum looped peptides): unit not given here

FVSEETGTLIVNSVL was tested, and the “Binding of serum 1a to linear peptides of protein E of SARS-CoV Urbani” value [1] was 0.8, the “Binding of serum 1a to looped/cyclic peptides of protein E of SARS-CoV Urbani” value [1] was 0.6 and the “Binding of serum 1b to linear peptides of protein E of SARS-CoV Urbani” value [1] was 0.6. For the same sequence, the “Binding of serum 1b to looped/cyclic peptides of protein E of SARS-CoV Urbani” value [1] was 0.6, the “Binding of serum 2 to linear peptides of protein E of SARS-CoV Urbani” value [1] was 0.5 and the “Binding of serum 2 to looped/cyclic peptides of protein E of SARS-CoV Urbani” value [1] was 0.4. For the same sequence, the “Binding of serum 6 to linear peptides of protein E of SARS-CoV Urbani” value [1] was 0.4, the “Binding of serum 6 to looped/cyclic peptides of protein E of SARS-CoV Urbani” value [1] was 0.5 and the “Binding of serum 37 to linear peptides of protein E of SARS-CoV Urbani” value [1] was 0.4. For the same sequence, the “Binding of serum 37 to looped/cyclic peptides of protein E of SARS-CoV Urbani” value [1] was 0.6, the “Binding of serum 62 to linear peptides of protein E of SARS-CoV Urbani” value [1] was 0.5 and the “Binding of serum 62 to looped/cyclic peptides of protein E of SARS-CoV Urbani” value [1] was 0.8. The “Binding of serum London to linear peptides of protein E of SARS-CoV Urbani” value [1] was 0.8, the “Binding of serum London to looped/cyclic peptides of protein E of SARS-CoV Urbani” value [1] was 0.5 and the “Binding of serum SARS-green to linear peptides of protein E of SARS-CoV Urbani” value [1] was 0.6. The “Binding of serum SARS-green to looped/cyclic peptides of protein E of SARS-CoV Urbani” value [1] was 0.6, the “Binding of serum SARS-yellow to linear peptides of protein E of SARS-CoV Urbani” value [1] was 0.4 and the “Binding of serum SARS-yellow to looped/cyclic peptides of protein E of SARS-CoV Urbani” value [1] was 0.8. The “Binding of Control Serum Blood-Bank to Looped peptides” value [2] was 0.8, the “Binding of Control serum Blood-bank to linear peptides” value [2] was 0.7 and the “Binding of Control serum LUMC to linear peptides” value [2] was 1.1. The “Binding of Control serum LUMC to looped peptides” value [2] was 0.7, the “Binding of a rabbit serum to linear peptides” value [3] was 0.3 and the “Binding of a rabbit serum to looped peptides” value [3] was 0.1.

ILTALRLCAYCCNIV was tested, and the “Binding of serum 1a to linear peptides of protein E of SARS-CoV Urbani” value [1] was 0.8, the “Binding of serum 1a to looped/cyclic peptides of protein E of SARS-CoV Urbani” value [1] was 0.9 and the “Binding of serum 1b to linear peptides of protein E of SARS-CoV Urbani” value [1] was 0.7. The “Binding of serum 1b to looped/cyclic peptides of protein E of SARS-CoV Urbani” value [1] was 0.6, the “Binding of serum 2 to linear peptides of protein E of SARS-CoV Urbani” value [1] was 0.4 and the “Binding of serum 2 to looped/cyclic peptides of protein E of SARS-CoV Urbani” value [1] was 1.0. The “Binding of serum 6 to linear peptides of protein E of SARS-CoV Urbani” value [1] was 0.8, the “Binding of serum 6 to looped/cyclic peptides of protein E of SARS-CoV Urbani” value [1] was 0.7 and the “Binding of serum 37 to linear peptides of protein E of SARS-CoV Urbani” value [1] was 0.7. The “Binding of serum 37 to looped/cyclic peptides of protein E of SARS-CoV Urbani” value [1] was 0.7, the “Binding of serum 62 to linear peptides of protein E of SARS-CoV Urbani” value [1] was 0.8 and the “Binding of serum 62 to looped/cyclic peptides of protein E of SARS-CoV Urbani” value [1] was 0.8. For the same sequence, the “Binding of serum London to linear peptides of protein E of SARS-CoV Urbani” value [1] was 0.5, the “Binding of serum London to looped/cyclic peptides of protein E of SARS-CoV Urbani” value [1] was 0.6 and the “Binding of serum SARS-green to linear peptides of protein E of SARS-CoV Urbani” value [1] was 0.5. For the same sequence, the “Binding of serum SARS-green to looped/cyclic peptides of protein E of SARS-CoV Urbani” value [1] was 0.6, the “Binding of serum SARS-yellow to linear peptides of protein E of SARS-CoV Urbani” value [1] was 0.2 and the “Binding of serum SARS-yellow to looped/cyclic peptides of protein E of SARS-CoV Urbani” value [1] was 0.6. For the same sequence, the “Binding of Control Serum Blood-Bank to Looped peptides” value [2] was 0.8, the “Binding of Control serum Blood-bank to linear peptides” value [2] was 0.8 and the “Binding of Control serum LUMC to linear peptides” value [2] was 0.4. For the same sequence, the “Binding of Control serum LUMC to looped peptides” value [2] was 0.8, the “Binding of a rabbit serum to linear peptides” value [3] was 0.6 and the “Binding of a rabbit serum to looped peptides” value [3] was 0.6.

For IVNSVLLFLAFVVFL, the “Binding of serum 1a to linear peptides of protein E of SARS-CoV Urbani” value [1] was 0.8, the “Binding of serum 1a to looped/cyclic peptides of protein E of SARS-CoV Urbani” value [1] was 0.6 and the “Binding of serum 1b to linear peptides of protein E of SARS-CoV Urbani” value [1] was 0.6. For the same sequence, the “Binding of serum 1b to looped/cyclic peptides of protein E of SARS-CoV Urbani” value [1] was 0.4, the “Binding of serum 2 to linear peptides of protein E of SARS-CoV Urbani” value [1] was 0.4 and the “Binding of serum 2 to looped/cyclic peptides of protein E of SARS-CoV Urbani” value [1] was 0.5. For the same sequence, the “Binding of serum 6 to linear peptides of protein E of SARS-CoV Urbani” value [1] was 0.7, the “Binding of serum 6 to looped/cyclic peptides of protein E of SARS-CoV Urbani” value [1] was 0.3 and the “Binding of serum 37 to linear peptides of protein E of SARS-CoV Urbani” value [1] was 0.7. For the same sequence, the “Binding of serum 37 to looped/cyclic peptides of protein E of SARS-CoV Urbani” value [1] was 0.6, the “Binding of serum 62 to linear peptides of protein E of SARS-CoV Urbani” value [1] was 0.6 and the “Binding of serum 62 to looped/cyclic peptides of protein E of SARS-CoV Urbani” value [1] was 0.6. The “Binding of serum London to linear peptides of protein E of SARS-CoV Urbani” value [1] was 0.4, the “Binding of serum London to looped/cyclic peptides of protein E of SARS-CoV Urbani” value [1] was 0.3 and the “Binding of serum SARS-green to linear peptides of protein E of SARS-CoV Urbani” value [1] was 0.3. The “Binding of serum SARS-green to looped/cyclic peptides of protein E of SARS-CoV Urbani” value [1] was 0.2, the “Binding of serum SARS-yellow to linear peptides of protein E of SARS-CoV Urbani” value [1] was 0.2 and the “Binding of serum SARS-yellow to looped/cyclic peptides of protein E of SARS-CoV Urbani” value [1] was 0.7. For the same sequence, the “Binding of Control Serum Blood-Bank to Looped peptides” value [2] was 0.5, the “Binding of Control serum Blood-bank to linear peptides” value [2] was 0.6 and the “Binding of Control serum LUMC to linear peptides” value [2] was 0.4. For the same sequence, the “Binding of Control serum LUMC to looped peptides” value [2] was 0.7, the “Binding of a rabbit serum to linear peptides” value [3] was 0.5 and the “Binding of a rabbit serum to looped peptides” value [3] was 0.5.
